Measurements: patent US8058395B2, “Chimeric protein comprising a green fluorescent ptotein fused to a transcription factor” (The United States of America as represented by the …, priority 1995, dated 2011)

Key:
[1] = tested on: GFP-ER (human estrogen receptor); assay: Ligand effect on nuclear localization of GFP-ER in MCF7 cells; format: cell-based; conditions: GFP-ER already partially activated by medium
Method: GFP-fusion plasmids of the invention are tested for expression and subcellular localization by transfection into several mammalian cells. For example, GFP-GR plasmids were analyzed in C127 (mouse) cells, HeLa (human cervical cancer) cells, and MCF7 (human breast adenocarcinoma) cells (ATCC accession number HTB22). GFP-ER plasmids were analyzed in 1471.1 cells, C127 (mouse) cells, MCF7 (human breast adenocarcinoma) cells, and MDA-MB-231 (human breast adenocarcinoma) cells (ATCC accession number HTB 26). Localization is observed in the absence of added hormone in either-5% or 10% charcoal-stripped fetal calf serum. Cells having GFP-fusion plasmids are then treated with a selected ligand, and subcellular localization and quantitative observations are made.
Assay for Ligand Effects: GFP-fusion plasmids of the invention are assayed for effects of a selected ligand on subcellular localization by transfection into selected cells. C127 (mouse) cells, HeLa (human cervical cancer) cells, and MCF7 (human breast adenocarcinoma) cells (ATCC accession number HTB22) were each transfected with GFP-GR plasmids and with GFP-ER plasmids. Localization is first observed in the absence of added hormone in either 5% or 10% charcoal-stripped fetal calf serum. Cells having GFP-fusion plasmids are then treated with a selected ligand, and subcellular localization and quantitative observations are made. […]

GR = conditions: cited from earlier work

SMILES: C[C@]12CC[C@@H]3c4ccc(O)cc4CC[C@H]3[C@@H]1CC[C@@H]2O [17-β-estradiol]
- nuclear GFP-ER signal after addition of agonist [1]: further concentration of nuclear signals on nuclear structures
- affinity for GR (GR): no affinity
